Laboratory results as given in US10005792B2, “Aminoindane-, aminotetrahydronaphthalene- and aminobenzocyclobutane-derived PRMT5-inhibitors” (CTXT PTY LTD, priority 2014, dated 2018).

Tests used:
[1] = molecular target: T1, Full-length PRMT5 enzyme co-expressed with MEP50 (Homo sapiens (Human), UniProt O14744); test: PRMT5 Biochemical Assay; settings: 200 nM histone H4 derived peptide substrate, 1 μM S-Adenosyl methionine, 4 hours at 37° C, Transcreener EPIGEN fluorescence polarisation
Experimental: Compounds of the invention may be tested for in vitro activity in the following assay: A histone H4 derived peptide is used as substrate (amino acid sequence: […]NH2). Full-length PRMT5 enzyme (NCBI Reference sequence NP-006100.2) was co-expressed with Hiss-MEP50 in insect cells and purified via Nickel immobilized metal affinity and gel filtration chromatography (“the enzyme”).
The 6 μL assay reactions are run in Greiner brand black 384-well low volume plates. All reactions contained assay buffer (phosphate buffered saline, 0.01% (v/v) Tween-20, 0.01% (w/v) albumin from chicken egg white, 1 mM dithiothreitol, 200 nM peptide substrate, 1 μM S-Adenosyl methionine, and 15 ng/reaction enzyme, with the enzyme being omitted from negative control reactions. Compounds were added in a volume of 100 nL from dilution series prepared in DMSO, positive and negative control reactions receiving the same volume DMSO without compound. The plates were sealed with adhesive seals and incubated for 4 hours at 37° C. Reaction progress was measured using the Transcreener™ EPIGEN methyltransferase assay (BellBrook Labs, Madison, Wis.) as recommended by the manufacturer. To each reaction 2 μL detection mix were added, containing coupling enzymes, fluorescence polarisation tracer, and AMP antibody. Plates were incubated for 90 min before being read on a PerkinElmer EnVision™ plate reader in fluorescence polarisation mode.

[2] = tested on: symmetrical dimethylation of arginine (Di-Methyl Histone H4 Arginine 3) in cell line TE11; test: Revised PRMT5 Biomarker Assay; settings: Homo sapiens, TE-11; TE11 cells, 72 hours incubation, immunofluorescence, corrected for cell number (Hoechst 33342), plate reader based
Experimental: Compounds of the invention may be tested for potency to inhibit symmetrical dimethylation of arginine in the following assay:
The cell line TE11 was seeded at a density of 6,000 cells per well in 96 well optical quality tissue culture plates in DME medium and 10% foetal bovine serum, and allowed to adhere for 5 hours under standard culture conditions (37 degree Celsius, 5% CO2). Compound dilutions prepared in DMSO were added to the medium, with negative control wells reserved for treatment with DMSO only and positive controls receiving a potent PRMT5 inhibitor compound at 1 μM concentration. After incubation for 72 hours, the cells were fixed with 3.7% formaldehyde in PBS for 30 minutes at room temperature, washed with phosphate buffer saline and blocked with Odyssey blocking buffer (LI-COR, Lincoln, Nebr.). Rabbit anti-Di-Methyl Histone H4 Arginine 3 specific antibody (Epigentek) in Odyssey blocking buffer was added and incubated for 14 hours at 4 degree Celsius. After washing, anti-rabbit secondary antibody labelled with Alexa647 dye (LifeTechnologies) and Hoechst 33342 (1 μg/mL, SigmaAldrich) were added for 1 hour incubation. Plates were washed and read on a PerkinElmer Envision 2103 in fluorescence intensity scanning mode (24 scans across the well area). The methylation level information was corrected for the number of cells as expressed by the Hoechst 33342 stain, converted to percent inhibition relative to controls on the same plate and the data fitted against a four-parameter logistic model to determine the 50% inhibitory concentration (IC50 plate-reader based). Alternatively, the plates were imaged on a PerkinElmer Phenix high content imaging platform. Using a Columbus image analysis pipeline, individual nuclei were located by Hoechst 33342 stain and the methylation level was calculated from the Alexa647-related intensity in the same area. The resulting mean intensity per cell was directly converted to percent inhibition as outlined above (IC50, imager based)).

[3] = molecular target: T1, Full-length PRMT5 enzyme co-expressed with MEP50; test: Revised PRMT5 Biochemical Assay; settings: 1 μM histone H4 derived peptide substrate, 1 μM S-Adenosyl methionine, 4 hours at 37 degree Celsius, Transcreener EPIGEN fluorescence polarisation
Summary of the method: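 Full-length human PRMT5 co-expressed with His-MEP50 in insect cells (15 ng/reaction), 1 μM H4-derived peptide and 1 μM SAM in PBS/0.01% Tween-20/egg albumin/1 mM DTT, 4 h at 37 °C. SAH formation read by Transcreener EPIGEN fluorescence polarisation after 90 min detection. IC50 from four-parameter fit of plate-normalised % inhibition.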

T1 sequence (O14744 whole entry): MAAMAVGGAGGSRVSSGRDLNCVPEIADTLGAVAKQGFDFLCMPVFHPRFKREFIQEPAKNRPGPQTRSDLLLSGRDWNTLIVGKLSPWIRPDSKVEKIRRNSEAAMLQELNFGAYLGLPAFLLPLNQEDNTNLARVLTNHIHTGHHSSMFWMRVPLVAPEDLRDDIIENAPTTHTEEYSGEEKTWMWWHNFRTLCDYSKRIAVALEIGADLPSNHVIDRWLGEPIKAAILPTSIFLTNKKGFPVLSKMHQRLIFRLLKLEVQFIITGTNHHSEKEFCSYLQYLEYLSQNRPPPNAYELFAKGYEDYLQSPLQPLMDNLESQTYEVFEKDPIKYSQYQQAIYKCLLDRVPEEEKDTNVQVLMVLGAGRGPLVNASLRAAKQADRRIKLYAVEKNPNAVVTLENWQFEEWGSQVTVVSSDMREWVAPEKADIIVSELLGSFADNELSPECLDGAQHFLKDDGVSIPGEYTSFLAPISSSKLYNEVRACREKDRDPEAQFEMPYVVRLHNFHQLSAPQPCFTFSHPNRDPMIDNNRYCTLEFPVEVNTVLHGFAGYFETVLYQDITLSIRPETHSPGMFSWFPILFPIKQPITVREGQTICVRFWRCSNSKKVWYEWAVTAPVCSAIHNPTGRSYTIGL
T1 sequence (Q9BQA1 whole entry partner): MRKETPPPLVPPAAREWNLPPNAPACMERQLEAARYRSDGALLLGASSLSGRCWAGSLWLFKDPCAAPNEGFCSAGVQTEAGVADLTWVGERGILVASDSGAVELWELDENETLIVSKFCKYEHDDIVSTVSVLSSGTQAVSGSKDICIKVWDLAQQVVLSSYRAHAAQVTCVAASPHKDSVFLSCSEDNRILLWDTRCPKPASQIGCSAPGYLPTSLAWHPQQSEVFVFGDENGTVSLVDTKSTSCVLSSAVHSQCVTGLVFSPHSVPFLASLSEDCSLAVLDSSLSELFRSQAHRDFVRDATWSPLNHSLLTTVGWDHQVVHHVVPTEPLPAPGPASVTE

## Cc1nnc(-c2ccc(C(=O)NC[C@@H](O)CNC3Cc4ccccc4C3)cc2)o1 [Compound 17, (S)-N-(3-((2,3-Dihydro-1H-inden-2-yl)amino)-2-hydroxypropyl)-4-(5-methyl-1,3,4-oxadiazol-2-yl)benzamide]
[1]
  IC50: 629 nM

## O=C(NCC(O)CNC1Cc2ccccc2C1)c1ccc(C(=O)N2CCC2)cc1 (centres unmarked) [Compound 20, 4-(Azetidine-1-carbonyl)-N-(3-((2,3-dihydro-1H-inden-2-yl)amino)-2-hydroxypropyl)benzamide]
[1]
  IC50: 977 nM

## O=C(NCC(O)CNC1Cc2ccccc2C1)c1ccc(C(=O)N2CCCC2)cc1 (centres unmarked) [Compound 21, N-(3-((2,3-Dihydro-1H-inden-2-yl)amino)-2-hydroxypropyl)-4-(pyrrolidine-1-carbonyl)benzamide]
[1]
  IC50: 1110 nM

## O=C(NCC(O)CNC1Cc2ccccc2C1)c1cccc(-c2ccccc2)c1 (centres unmarked) [Compound 25, N-(3-((2,3-Dihydro-1H-inden-2-yl)amino)-2-hydroxypropyl)[1,1′-biphenyl]-3-carboxamide]
[1]
  IC50: 2220 nM

## O=C(NCC(O)CNC1Cc2ccccc2C1)c1ccccc1-c1ccccc1 (centres unmarked) [Compound 26, N-(3-((2,3-Dihydro-1H-inden-2-yl)amino)-2-hydroxypropyl)-[1,1′-biphenyl]-2-carboxamide]
[1]
  IC50: 3870 nM

## O=C(NCC(O)CNC1Cc2ccccc2C1)c1ccc(C(=O)N2CCOCC2)cc1F (centres unmarked) [Compound 27, N-(3-((2,3-Dihydro-1H-inden-2-yl)amino)-2-hydroxypropyl)-2-fluoro-4-(morpholine-4-carbonyl)benzamide]
[1]
  IC50: 434 nM

## O=C(NCC(O)CNC1Cc2ccc(Br)cc2C1)c1ccc(Cl)cc1 (centres unmarked) [Compound 28, N-(3-((5-Bromo-2,3-dihydro-1H-inden-2-yl)amino)-2-hydroxypropyl)-4-chlorobenzamide]
[1]
  IC50: 69400 nM

## O=C(NCCC(O)CNC1Cc2ccccc2C1)c1ccc(Cl)cc1 (centres unmarked) [Compound 29, 4-Chloro-N-(4-((2,3-dihydro-1H-inden-2-yl)amino)-3-hydroxybutyl)benzamide]
[1]
  IC50: 4430 nM

## O=C(NCC(O)CNC1CCc2ccc(F)cc2C1)c1ccc(Cl)cc1 (centres unmarked) [Compound 31, 4-Chloro-N-(3-((7-fluoro-1,2,3,4-tetrahydronaphthalen-2-yl)amino)-2-hydroxypropyl)benzamide]
[1]
  IC50: 22600 nM

## O=C(NCC(O)CNC1CCc2cc(F)ccc2C1)c1ccc(Cl)cc1 (centres unmarked) [Compound 32, 4-Chloro-N-(3-((6-fluoro-1,2,3,4-tetrahydronaphthalen-2-yl)amino)-2-hydroxypropyl)benzamide]
[1]
  IC50: 18800 nM

## CN(CC(O)CNC(=O)c1ccc(Cl)cc1)C1CCc2ccccc2C1 (centres unmarked) [Compound 33, 4-Chloro-N-(2-hydroxy-3-(methyl(1,2,3,4-tetrahydronaphthalen-2-yl)amino)propyl) benzamide]
[1]
  IC50: 24900 nM

## O=C(NCC(O)CNC1Cc2ccccc21)c1ccc(Cl)cc1 (centres unmarked) [Compound 34, N-(3-(Bicyclo[4.2.0]octa-1(6),2,4-trien-7-ylamino)-2-hydroxypropyl)-4-chlorobenzamide]
[1]
  IC50: 41100 nM

## O=C(NCC(O)CNC1Cc2ccccc2C1)c1ccc(C(=O)N2CC3CCC(C2)O3)cc1 (centres unmarked) [Compound 39, 4-(8-Oxa-3-azabicyclo[3.2.1]octane-3-carbonyl)-N-(3-((2,3-dihydro-1H-inden-2-yl)amino)-2-hydroxypropyl)benzamide]
[1]
  IC50: 120 nM

## CC1(C)CN(C(=O)c2ccc(C(=O)NCC(O)CNC3Cc4ccccc4C3)cc2)CCO1 (centres unmarked) [Compound 41, N-(3-((2,3-Dihydro-1H-inden-2-yl)amino)-2-hydroxypropyl)-4-(2,2-dimethylmorpholine-4-carbonyl)benzamide]
[1]
  IC50: 157 nM

## CC(=O)N1CCC(Nc2cncc(C(=O)NCC(O)CNC3Cc4ccccc4C3)c2)CC1 (centres unmarked) [Compound 53, 5-((1-Acetylpiperidin-4-yl)amino)-N-(3-((2,3-dihydro-1H-inden-2-yl)amino)-2-hydroxypropyl)nicotinamide]
[2]
  IC50: 0.662 µM
[3]
  IC50: 164 nM

## CC(=O)N1CCC(Nc2cc(C(=O)NC[C@H](O)CNC3Cc4ccccc4C3)ccn2)CC1 [Compound 55, (R)-2-((1-Acetylpiperidin-4-yl)amino)-N-(3-((2,3-dihydro-1H-inden-2-yl)amino)-2-hydroxypropyl)isonicotinamide]
[2]
  IC50: 0.122 µM
[3]
  IC50: 450 nM

## CC(=O)N1CCC(Nc2cc(C(=O)NC[C@@H](O)CNC3Cc4ccccc4C3)ccn2)CC1 [Compound 56, (S)-2-((1-Acetylpiperidin-4-yl)amino)-N-(3-((2,3-dihydro-1H-inden-2-yl)amino)-2-hydroxypropyl)isonicotinamide]
[2]
  IC50: 0.007 µM
[3]
  IC50: 98 nM

## CC[C@H]1COCCN1C(=O)c1ccc(C(=O)NC[C@@H](O)CNC2Cc3ccccc3C2)cc1 [Compound 70, N-((S)-3-((2,3-dihydro-1H-inden-2-yl)amino)-2-hydroxypropyl)-4-((S)-3-ethylmorpholine-4-carbonyl)benzamide]
[2]
  IC50: 0.015 µM
[3]
  IC50: 157 nM

## CCOc1cc(C(=O)N2CCOCC2)ccc1C(=O)NC[C@@H](O)CNC1Cc2ccccc2C1 [Compound 75, (S)-N-(3-((2,3-dihydro-1H-inden-2-yl)amino)-2-hydroxypropyl)-2-ethoxy-4-(morpholine-4-carbonyl)benzamide]
[2]
  IC50: 0.004 µM
[3]
  IC50: 64 nM

## CCOc1cc(C(=O)N2CCCC2)ccc1C(=O)NC[C@@H](O)CNC1Cc2ccccc2C1 [Compound 76, (S)-N-(3-((2,3-dihydro-1H-inden-2-yl)amino)-2-hydroxypropyl)-2-ethoxy-4-(pyrrolidine-1-carbonyl)benzamide]
[2]
  IC50: 0.008 µM
[3]
  IC50: 209 nM

## CCOc1cc(C(=O)N2C3CCC2COC3)ccc1C(=O)NC[C@@H](O)CNC1Cc2ccccc2C1 [Compound 77, 4-(3-oxa-8-azabicyclo[3.2.1]octane-8-carbonyl)-N-((S)-3-((2,3-dihydro-1H-inden-2-yl)amino)-2-hydroxypropyl)-2-ethoxybenzamide]
[2]
  IC50: 0.0005 µM
[3]
  IC50: 29 nM

## O=C(NC[C@@H](O)CNC1Cc2ccccc2C1)c1ccc(C(=O)N2C3CCC2COC3)cc1 [Compound 103, 4-(3-oxa-8-azabicyclo[3.2.1]octane-8-carbonyl)-N-((S)-3-((2,3-dihydro-1H-inden-2-yl)amino)-2-hydroxypropyl)benzamide]
[2]
  IC50: 0.017 µM
[3]
  IC50: 120 nM

## O=C(NC[C@@H](O)CNC1Cc2ccccc2C1)c1ccc(C(=O)N2CC3CCC(C2)O3)cc1 [Compound 105, 4-(8-oxa-3-azabicyclo[3.2.1]octane-3-carbonyl)-N-((S)-3-((2,3-dihydro-1H-inden-2-yl)amino)-2-hydroxypropyl)benzamide]
[2]
  IC50: 0.01 µM
[3]
  IC50: 196 nM

## CN(C[C@@H](O)CNC1Cc2ccccc2C1)C(=O)c1ccc(C(=O)N2CCOCC2)cc1 [Compound 111, (S)—N-(3-((2,3-Dihydro-1H-inden-2-yl)amino)-2-hydroxypropyl)-N-methyl-4-(morpholine-4-carbonyl)benzamide]
[2]
  IC50: > 2 µM
[3]
  IC50: 10400 nM

## CCOc1cc(C(=O)N2CCS(=O)(=O)CC2)ccc1C(=O)NC[C@@H](O)CNC1Cc2ccccc2C1 [Compound 114, (S)-N-(3-((2,3-dihydro-1H-inden-2-yl)amino)-2-hydroxypropyl)-4-(1,1-dioxidothiomorpholine-4-carbonyl)-2-ethoxybenzamide]
[2]
  IC50: 0.024 µM
[3]
  IC50: 66 nM

## O=C(NC[C@@H](O)CNC1Cc2ccccc2C1)c1ccc(C(=O)N2C3CCC2COC3)cc1Cl [Compound 121, 4-(3-oxa-8-azabicyclo[3.2.1]octane-8-carbonyl)-2-chloro-N-((S)-3-((2,3-dihydro-1H-inden-2-yl)amino)-2-hydroxypropyl)benzamide]
[2]
  IC50: 0.016 µM
[3]
  IC50: 130 nM
